Source: patent publication US7622497B2, “Derivatives of gambogic acid and analogs as activators of caspases and inducers of apoptosis” (Cytovia, Inc., priority 2003, dated 2009)

What was measured:
DLD [1] = test: Caspase cascade activation (DEVD-R110 fluorogenic substrate) in DLD cells; assay type: cell-based, Human; details: 24 h incubation; for EC50: Homo sapiens, read-out: Caspase potency EC50 DLD; for Caspase activity (Ratio) DLD: ratio of net RFU of compound to control, 0.16 to 10 μM final
Description: (§1) Human breast cancer cell lines T-47D and DLD were grown according to media component mixtures designated by American Type Culture Collection+10% FCS Invitrogen Corporation), in a 5% CO2-95% humidity incubator at 37° C. T-47D and DLD cells were maintained at a cell density between 30 and 80% confluency and for HL-60 at a cell density of 0.1 to 0.6×10^6 cells/ml. Cells were harvested at 600×g and resuspended at 0.65×10^6 cells/mL into appropriate media+10% FCS. An aliquot of 45 μl of cells was added to a well of a 96-well microtiter plate containing 5 μl of a 10% DMSO in RPMI-1640 media solution containing 1.6 to 100 μM of novel derivative of gambogic acid (0.16 to 10 μM final). An aliquot of 45 μl of cells was added to a well of a 96-well microtiter plate containing 5 μl of a 10%. DMSO in RPMI-1640 media solution without test compound as the control sample. The samples were mixed by agitation and then incubated at 37° C. for 24 h in a 5% CO2-95% humidity incubator. After incubation, the samples were removed from the incubator and 50 μl of a solution containing 20 μM of N-(Ac-DEVD)-N′-ethoxycarbonyl-R110 fluorogenic substrate SEQ ID NO:1 (Cytovia, Inc.; U.S. Pat. No. 6,335,429), 20% sucrose (Sigma), 20 mM DTT (Sigma), 200 mM NaCl (Sigma), 40 mM Na PIPES buffer pH 7.2 (Sigma), and 500 μg/ml lysolecithin (Calbiochem) was added. The samples were mixed by agitation and incubated at room temperature. Using a fluorescent plate reader (Model 1420 Wallac Instruments), an initial reading (T=0) was made approximately 1-2 min after addition of the substrate solution, employing excitation at 485 nm and emission at 530 nm, to determine the background fluorescence of the control sample. After approximately 3 h of incubation, the samples were read for fluorescence as above (T=3 h).
(§2) The Relative Fluorescence Unit values (RFU) were used to calculate the sample readings as follows: RFU(T=3h)−Control RFU(T=0)=Net RFU(T=3h)
(§3) The activity of caspase cascade activation was determined by the ratio of the net RFU value for derivatives of gambogic acid to that of control samples. The EC50 (nM) was determined by a sigmoidal dose-response calculation (Prism 2.0, GraphPad Software Inc.).

T-47D = test: Caspase cascade activation (DEVD-R110 fluorogenic substrate) in T-47D cells; assay type: cell-based, Human; details: 24 h incubation; for EC50: Homo sapiens, T47D, read-out: Caspase potency EC50 T-47D; for Caspase activity (Ratio) T-47D: ratio of net RFU of compound to control, 0.16 to 10 μM final
Description: as §1, §2, §3

T47D = test: Inhibition of cell proliferation (GI50), T47D; assay type: cell-based; details: Homo sapiens; T47D cells, 48 h, CellTiter 96 AQueous
Description: (§4) T-47D, DLD-1, MX-1, SW620, H1299, HEK293T and HEK293H cells were grown and harvested as in Example 11. An aliquot of 90 μL of cells (2.2×10^4 cells/mL) was added to a well of a 96-well microtiter plate containing 10 μl of a 10% DMSO in RPMI-1640 media solution containing 1 nM to 100 μM of novel derivative of gambogic acid (Example 2; 0.1 nM to 10 μM final). An aliquot of 90 μL of cells was added to a well of a 96-well microtiter plate containing 10 μL of a 10% DMSO in RPMI-1640 media solution without compound as the control sample for maximal cell proliferation (AMax). The samples were mixed by agitation and then incubated at 37° C. for 48 h in a 5% CO2-95% humidity incubator. After incubation, the samples were removed from the incubator and 20 μL of CellTiter 96 AQUEOUS One Solution Cell Proliferation™ reagent (Promega) was added. The samples were mixed by agitation and incubated at 37° C. for 2-4 h in a 5% CO2-95% humidity incubator. Using an absorbance plate reader (Model 1420 Wallac Instruments), an initial reading (T=0) was made approximately 1-2 min after addition of the solution, employing absorbance at 490 nm. This determines the possible background absorbance of the test compounds. No absorbance for the derivative of gambogic acid was found at 490 nm. After the 2-4 h incubation, the samples were read for absorbance as above (ATest). […]

MX-1 = test: Inhibition of cell proliferation (GI50), MX-1; assay type: cell-based; details: Homo sapiens, MX1; MX-1 cells, 48 h, CellTiter 96 AQueous
Description: as §4

SW620 = test: Inhibition of cell proliferation (GI50), SW620; assay type: cell-based; details: Homo sapiens, SW-620; SW620 cells, 48 h, CellTiter 96 AQueous
Description: as §4

DLD [2] = test: Inhibition of cell proliferation (GI50), DLD; assay type: cell-based; details: Homo sapiens; DLD cells, 48 h, CellTiter 96 AQueous
Description: as §4

H1299 = test: Inhibition of cell proliferation (GI50), H1299; assay type: cell-based; details: Homo sapiens, NCI-H1299; H1299 cells, 48 h, CellTiter 96 AQueous
Description: as §4

HEK293T = test: Inhibition of cell proliferation (GI50), HEK293T; assay type: cell-based; details: Homo sapiens, HEK-293T; HEK293T cells, 48 h, CellTiter 96 AQueous
Description: as §4

HEK293H = test: Inhibition of cell proliferation (GI50), HEK293H; assay type: cell-based; details: HEK293-H; HEK293H cells, 48 h, CellTiter 96 AQueous
Description: as §4

Row | SMILES | EC50 (DLD [1]) | Caspase activity (Ratio) DLD (DLD [1]) | EC50 (T-47D) | Caspase activity (Ratio) T-47D (T-47D) | GI50 (T47D) | GI50 (MX-1) | GI50 (SW620) | GI50 (DLD [2]) | GI50 (H1299) | GI50 (HEK293T) | GI50 (HEK293H)
1 | COC(=O)/C(C)=C\CC12OC(C)(C)C3CC(C1=O)C(N1CCOCC1)C1C(=O)c4c(O)c5c(c(CC=C(C)C)c4OC132)OC(C)(CCC(O)C(C)(C)O)C=C5 (centres unmarked) [Example 6, Methyl 37,38-Dihydroxy-9,10-dihydro-10-morpholinyl-gambogate] | 2400 nM | 9.2 | 1160 nM | 17 |  |  |  |  |  |  | 
2 | COC(=O)/C(C)=C\CC12OC(C)(C)C3CC(C1=O)C(N1CCOCC1)C1C(=O)c4c(O)c5c(c(CC=C(C)C)c4OC132)OC(C)(CCC=O)C=C5 (centres unmarked) [Example 7, Methyl 20-Ethylaldehyde-9,10-dihydro-10-morpholinyl-morellinate] | 1360 nM | 5.8 | 1110 nM | 16 |  |  |  |  |  |  | 
3 | CC(C)=CCCC1(C)C=Cc2c(O)c3c(c(CC=C(C)C)c2O1)OC12C(=CC4CC1C(C)(C)OC2(C/C=C(/C)C(=O)OCCN1CCOCC1)C4=O)C3=O (centres unmarked) [Example 1, 2-(Morpholin-4-yl)-ethyl gambogate] | 350 nM | 7.6 | 303 nM | 18 |  |  |  |  |  |  | 
4 | CC(C)=CCCC1(C)C=Cc2c(O)c3c(c(CC=C(C)C)c2O1)OC12C(=CC4CC1C(C)(C)OC2(C/C=C(/C)C(=O)NCCCN1CCN(C)CC1)C4=O)C3=O (centres unmarked) [Example 3, N-[3-(4-Methyl-piperazin-1-yl)-propyl]gambogamide] | 2120 nM | 5.8 | 1660 nM | 13 |  |  |  |  |  |  | 
5 | CC(C)=CCCC1(C)C=Cc2c(O)c3c(c(CC=C(C)C)c2O1)OC12C(=CC4CC1C(C)(C)OC2(C/C=C(/C)C(=O)NCCCN1CCOCC1)C4=O)C3=O (centres unmarked) [Example 4, N-(3-Morpholin-4-yl-propyl)gambogamide] | 824 nM | 7.2 | 638 nM | 15 |  |  |  |  |  |  | 
6 | COC(=O)/C(C)=C\CC12OC(C)(C)C3CC(C=C4C(=O)c5c(O)c6c(c(CC=C(C)C)c5OC431)OC(C)(CCC(O)C(C)(C)O)C=C6)C2=O (centres unmarked) [Example 5, Methyl 37,38-Dihydroxy-gambogate] | 1290 nM | 7.2 | 750 nM | 17 |  |  |  |  |  |  | 
7 | CC(C)=CCCC1(C)C=Cc2c(O)c3c(c(CC=C(C)C)c2O1)OC12C(=CC4CC1C(C)(C)OC2(C/C=C(/C)C(=O)OCCN(C)C)C4=O)C3=O (centres unmarked) [Example 2, 2-Dimethylaminoethyl gambogate] | 1040 nM | 7.2 | 676 nM | 17 | 187 nM | 101 nM | 180 nM | 173 nM | 184 nM | 440 nM | 192 nM
